Experimental data as given in US8889704B2 (Array BioPharma Inc., priority 2011, dated 2014).
Counter-ions that a name gives are not always drawn.

Columns and labels:
Assay type in all cases: biochemical
recombinant rat PIM-3 = recombinant rat PIM-3 (Rattus norvegicus, UniProt O70444); experiment: PIM-3 Assay (as Example A); details: averaged IC50; 30 μM ATP, 3.75 μM PIM2tide, 0.5 nM PIM-3
Procedure: (§1) The assay for the determination of PIM-1 activity is based on the incorporation of [^33P]PO4 from [γ-^33P]ATP into PIM2tide substrate and capture of the radiolabeled peptide onto a Whatman P81 (phosphocellulose) filter plate. The amount of radiolabeled product is then measured by liquid scintillation counting. The final buffer conditions were as follows: 20 mM K^+MOPS, pH 7.4, 10 mM MgCl2, 0.005% Tween-20, 1 mM DTT. Assay mixtures contained 35 μM [γ-^33P]ATP (20 μCi/mL), 7.5 μM PIM2tide and 0.25 nM PIM-1 in a total volume of 50 μL. Incubations were carried out for 60 min at 22° C. and quenched with 75 μL of 200 mM H3PO4, filtered through a Whatman P81 plate and washed (1×200 μL and 5×100 μL) with 200 mM H3PO4. Fifty μL of liquid scintillation cocktail were then added per well, and the plate was counted for 30 s/well using a TopCount NXT.
(§2) Compounds were prepared at 50× the final concentration in DMSO by conducting 3-fold serial dilutions from a 500-μM intermediate dilution to give a 10-point dosing curve having a high dose of 10 μM. One-μL aliquots of these were then transferred to the assay mixtures above to give a final concentration of DMSO of 2%. A standard or reference compound was typically included on each assay plate to validate that plate. For each plate, percent of control (POC) values were calculated for each well. IC50 values were estimated from the POC values using a standard 4-parameter logistic model. The IC50 is defined as the concentration of inhibitor at which the POC equals 50 for the fitted curve.
Assay was performed as described in Example A, using 30 μM [γ-^33P]ATP (20 μCi/mL), 3.75 μM PIM2tide and 0.5 nM recombinant rat PIM-3 in place of PIM-1.

PIM-1 = PIM-1 (Homo sapiens, UniProt P11309); experiment: Enzyme PIM-1 Assay ([33P]ATP incorporation into PIM2tide, filter plate); details: averaged IC50; 35 μM ATP, 7.5 μM PIM2tide, 0.25 nM PIM-1, 60 min at 22° C.
Procedure: as §1, §2

[1] = molecular target: T1, GST-tagged recombinant full-length human Pim-2 (Homo sapiens, UniProt Q9P1W9); experiment: PIM-2 Assay (as Example A); details: averaged IC50; 4 μM ATP, 1.0 μM PIM2tide, 1.5 nM Pim-2
T1 construct: GST-tagged recombinant full-length human Pim-2; GST
Procedure: as §1, §2
Assay was performed as described in Example A, using 4 μM [γ-^33P]ATP (20 μCi/mL), 1.0 μM PIM2tide and 1.5 nM GST-tagged recombinant full-length human Pim-2 in place of PIM-1.

T1 sequence (Q9P1W9 whole entry): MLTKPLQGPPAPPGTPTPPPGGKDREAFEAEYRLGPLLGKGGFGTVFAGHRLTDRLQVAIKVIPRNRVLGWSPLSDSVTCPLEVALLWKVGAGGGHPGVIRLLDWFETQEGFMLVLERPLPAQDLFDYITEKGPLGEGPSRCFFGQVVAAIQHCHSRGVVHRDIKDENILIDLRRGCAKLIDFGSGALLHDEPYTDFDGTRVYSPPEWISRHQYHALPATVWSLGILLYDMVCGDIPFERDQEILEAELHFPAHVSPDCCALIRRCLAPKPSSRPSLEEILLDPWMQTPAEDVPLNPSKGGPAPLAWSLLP
PIM-1, sequence (P11309 whole entry, species assumed): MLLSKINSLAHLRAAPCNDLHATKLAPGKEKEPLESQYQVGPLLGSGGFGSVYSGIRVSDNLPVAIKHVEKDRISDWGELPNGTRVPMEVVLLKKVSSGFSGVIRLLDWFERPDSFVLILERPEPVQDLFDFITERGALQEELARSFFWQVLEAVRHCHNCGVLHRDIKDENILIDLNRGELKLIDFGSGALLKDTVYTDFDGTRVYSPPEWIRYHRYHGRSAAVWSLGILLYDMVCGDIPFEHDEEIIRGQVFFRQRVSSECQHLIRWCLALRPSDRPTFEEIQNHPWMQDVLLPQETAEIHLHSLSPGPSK

SMILES | IC50 (recombinant rat PIM-3) | IC50 (PIM-1) | IC50 [1]
CC(C)Oc1cccc2ccc(-c3nnc4ccc([C@@H](N5CC[C@](N)(CF)C5)C(F)(F)F)cn34)nc12 (single isomer, unassigned) [Example 155, dihydrochloride] | 0.0013 µM | 0.00034 µM | 0.045 µM
COc1cccc2ccc(-c3nnc4ccc([C@@H](N5CC[C@@](N)(CF)C5)C(F)(F)F)cn34)nc12 (single isomer, unassigned) [Example 169] | 0.036 µM | 0.00665 µM | > 0.1 µM
COc1cccc2ccc(-c3nnc4ccc([C@@H](N5CC[C@](N)(CF)C5)C(F)(F)F)cn34)nc12 (single isomer, unassigned) [Example 170] | 0.0062 µM | 0.00095 µM | > 0.1 µM
COc1cccc2ccc(-c3nnc4ccc([C@@H](N5CCC(C)(O)C5)C(F)(F)F)cn34)nc12 (single isomer, unassigned; diastereomer 1) [Example 193, hydrochloride] | 0.067 µM | 0.013 µM | > 1 µM
CC1(O)CCN([C@H](c2ccc3nnc(-c4ccc5cccc(C(C)(C)C)c5n4)n3c2)C(F)(F)F)C1 (single isomer, unassigned; diastereomer 1) [Example 195, hydrochloride] | 0.053 µM | 0.0213 µM | > 1 µM
CC(C)Oc1cccc2ccc(-c3nnc4ccc([C@H](N5CCC(C)(O)C5)C(F)(F)F)cn34)nc12 (single isomer, unassigned; diastereomer 1) [Example 199] | 0.03 µM | 0.0187 µM | > 1 µM
Cn1cc(-c2ccc3ccc(-c4nnc5ccc([C@H](N6CCC(C)(O)C6)C(F)(F)F)cn45)nc3c2)cn1 (single isomer, unassigned; diastereomer 1) [Example 200] | 0.0034 µM | 0.00186 µM | 0.137 µM
CC(C)Oc1cc(F)cc2ccc(-c3nnc4ccc([C@H](N5CCC(C)(O)C5)C(F)(F)F)cn34)nc12 (single isomer, unassigned; diastereomer 1) [Example 202, hydrochloride] | 0.0079 µM | 0.00662 µM | > 1 µM
CCC1(N)CCN([C@H](c2ccc3nnc(-c4ccc5cccc(OC)c5n4)n3c2)C(F)(F)F)C1 (single isomer, unassigned; diastereomer 1) [Example 242, dihydrochloride] | 0.021 µM | 0.0042 µM | > 1 µM
CCOc1cc2nc(-c3nnc4ccc([C@@H](N5CCC(N)(CC)C5)C(F)(F)F)cn34)ccc2cc1F (single isomer, unassigned; diastereomer 1) [Example 243, dihydrochloride] | 0.0021 µM | 0.00054 µM | 0.728 µM
CCC1(N)CCN([C@@H](c2ccc3nnc(-c4ccc5cccc(OC)c5n4)n3c2)C(F)(F)F)C1 (single isomer, unassigned; diastereomer 1) [Example 250, dihydrochloride] | 0.011 µM | 0.00277 µM | 0.861 µM
CCOc1cc2nc(-c3nnc4ccc([C@H](N5CCC(N)(CC)C5)C(F)(F)F)cn34)ccc2cc1F (single isomer, unassigned; diastereomer 1) [Example 251, dihydrochloride] | 0.0008 µM | 0.00075 µM | 0.102 µM
N[C@H]1CCN([C@H](c2ccc3nnc(-c4ccc5ccc(O[C@H]6CCC[C@@H]6O)cc5n4)n3c2)C(F)(F)F)C1 (single isomer, unassigned; diastereomer 1) [Example 319, di-hydrochloride] | 0.0003 µM | 0.00011 µM | 0.112 µM
COc1cccc2ccc(-c3nnc4ccc([C@@H](N5CCC(C)(O)C5)C(F)(F)F)cn34)nc12 (single isomer, unassigned; diastereomer 2) [Example 194, hydrochloride] | > 0.1 µM | > 0.1 µM | > 1 µM
CC1(O)CCN([C@H](c2ccc3nnc(-c4ccc5cccc(C(C)(C)C)c5n4)n3c2)C(F)(F)F)C1 (single isomer, unassigned; diastereomer 2) [Example 196, hydrochloride] | > 0.1 µM | 0.0423 µM | > 1 µM
Cn1cc(-c2ccc3ccc(-c4nnc5ccc([C@H](N6CCC(C)(O)C6)C(F)(F)F)cn45)nc3c2)cn1 (single isomer, unassigned; diastereomer 2) [Example 201, hydrochloride] | 0.042 µM | 0.0435 µM | > 1 µM
CC(C)Oc1cc(F)cc2ccc(-c3nnc4ccc([C@H](N5CCC(C)(O)C5)C(F)(F)F)cn34)nc12 (single isomer, unassigned; diastereomer 2) [Example 203, hydrochloride] | 0.037 µM | 0.0198 µM | > 1 µM
CC(C)Oc1cccc2ccc(-c3nnc4ccc([C@H](N5CCC(C)(O)C5)C(F)(F)F)cn34)nc12 (single isomer, unassigned; diastereomer 2) [Example 207] | 0.04 µM | 0.058 µM | > 1 µM
CCC1(N)CCN([C@@H](c2ccc3nnc(-c4ccc5cccc(OC)c5n4)n3c2)C(F)(F)F)C1 (single isomer, unassigned; diastereomer 2) [Example 244, dihydrochloride] | 0.001 µM | 0.00111 µM | 0.093 µM
CCOc1cc2nc(-c3nnc4ccc([C@H](N5CCC(N)(CC)C5)C(F)(F)F)cn34)ccc2cc1F (single isomer, unassigned; diastereomer 2) [Example 245, dihydrochloride] | 0.0005 µM | 0.00104 µM | 0.125 µM
CCC1(N)CCN([C@H](c2ccc3nnc(-c4ccc5cccc(OC)c5n4)n3c2)C(F)(F)F)C1 (single isomer, unassigned; diastereomer 2) [Example 252, dihydrochloride] | 0.024 µM | 0.00405 µM | > 1 µM
CCOc1cc2nc(-c3nnc4ccc([C@@H](N5CCC(N)(CC)C5)C(F)(F)F)cn34)ccc2cc1F (single isomer, unassigned; diastereomer 2) [Example 253, dihydrochloride] | 0.0022 µM | 0.00078 µM | 0.776 µM
N[C@H]1CCN([C@H](c2ccc3nnc(-c4ccc5ccc(O[C@@H]6CCC[C@H]6O)cc5n4)n3c2)C(F)(F)F)C1 (single isomer, unassigned; diastereomer 2) [Example 320, di-hydrochloride] | 0.0003 µM | 0.00014 µM | 0.111 µM
N[C@H]1CCN(C(c2ccc3nnc(-c4ccc5cc(F)c(OCCOC(=O)c6ccccc6)cc5n4)n3c2)C(F)(F)F)C1 (stereo in doubt) [Example 313, 2-((2-(6-((R)-1-((S)-3-aminopyrrolidin-1-yl)-2,2,2-trifluoroethyl)-[1,2,4]triazolo[4,3-a]pyridin-3-yl)-6-fluoroquinolin-7-yl)oxy)ethyl benzoate] | 0.0061 µM | 0.00115 µM | 5.7 µM
COCCOc1ccc2cc(F)c(-c3nnc4ccc(C(N5CC[C@](C)(N)C5)C(F)(F)F)cn34)nc2c1 (stereo in doubt) [Example 327, (S)-3-methyl-1-((R)-2,2,2-trifluoro-1-(3-(3-fluoro-7-(2-methoxyethoxy)quinolin-2-yl)-[1,2,4]triazolo[4,3-a]pyridin-6-yl)ethyl)pyrrolidin-3-amine] | 0.00134 µM | 0.00042 µM | 0.34 µM
COc1cccc2ccc(-c3nnc4ccc(C(N5CC[C@H](N)C5)C(F)(F)F)cn34)nc12 (stereo partly drawn) [Example 1, (3S)-1-(2,2,2-trifluoro-1-(3-(8-methoxyquinolin-2-yl)-[1,2,4]triazolo[4,3-a]pyridin-6-yl)ethyl)pyrrolidin-3-amine dihydrochloride] | 0.0017 µM | 0.00043 µM | 0.161 µM
N[C@H]1CCN(C(c2ccc3nnc(-c4ccc5ccc(Br)cc5n4)n3c2)C(F)(F)F)C1 (stereo partly drawn) [Example 2, (3S)-1-(1-(3-(7-bromoquinolin-2-yl)-[1,2,4]triazolo[4,3-a]pyridin-6-yl)-2,2,2-trifluoroethyl)pyrrolidin-3-amine dihydrochloride] | 0.001 µM | 0.00019 µM | 0.074 µM
N[C@H]1CCN(C(c2ccc3nnc(-c4ccc5ccc(C6CC6)cc5n4)n3c2)C(F)(F)F)C1 (stereo partly drawn) [Example 3, (3S)-1-(1-(3-(7-cyclopropylquinolin-2-yl)-[1,2,4]triazolo[4,3-a]pyridin-6-yl)-2,2,2-trifluoroethyl)pyrrolidin-3-amine dihydrochloride] | 0.0003 µM | 0.00013 µM | 0.053 µM
